These results are taken from patent US8846698B2, “Pyrrolo[2,3-d]pyrimidine tropomysin-related kinase inhibitors” (Pfizer Limited, priority 2011, dated 2014).

Read-outs that look alike come from different tables or passages of the source.

Series [1] addresses T1, TRKA (Homo sapiens (Human), UniProt P04629). Kind of series: Isolated TRK enzyme assay (HTRF KinEASE-TK), TRKA. In kind it is biochemical. As to conditions: isolated TRKA enzyme; read-out: TrkA enzyme potency. In general terms: Time-resolved FRET reads energy transfer from a long-lived donor to a nearby acceptor.
Target sequence in this assay (P04629 441-796): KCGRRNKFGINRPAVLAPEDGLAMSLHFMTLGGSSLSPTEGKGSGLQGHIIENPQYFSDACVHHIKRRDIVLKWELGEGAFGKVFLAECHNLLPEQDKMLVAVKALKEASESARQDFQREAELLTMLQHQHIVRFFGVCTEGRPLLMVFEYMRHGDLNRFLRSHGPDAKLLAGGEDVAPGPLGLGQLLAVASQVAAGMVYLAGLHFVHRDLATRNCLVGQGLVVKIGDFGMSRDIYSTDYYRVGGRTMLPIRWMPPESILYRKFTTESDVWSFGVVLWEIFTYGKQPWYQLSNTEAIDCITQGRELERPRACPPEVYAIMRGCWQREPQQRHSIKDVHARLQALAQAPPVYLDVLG
Series [2] deals with T2, TRKB (Homo sapiens (Human), UniProt Q16620). Kind of series: biochemical.
For series [3], the target named is T1, TRKA. The experiment in a line: Cell based DiscoveRx PathHunter antagonist assay, TRKA cell line. As to conditions: read-out: TrkA cell potency. How it is done: (§1) After the Detection Reagent addition, plates are covered and incubated at room temperature for 60 minutes. […] Test compound data are expressed as percentage inhibition defined by HPE and ZPE values for each plate. Percentage inhibition in the presence of test compound is plotted against compound concentration on a log scale to determine an IC50 from the resultant sigmoid curve. Cell Based Assays were carried out using Cell lines from DiscoveRx utilising their PathHunter technology and reagents in an antagonist assay:
(§2) The assays are based upon DiscoveRx's proprietary Enzyme Fragment Complementation (EFC) technology. In the case of the TRK cell lines, the enzyme acceptor (EA) protein is fused to a SH2 protein and the TRK receptor of interest has been tagged with a Prolink tag.
(§3) Upon neurotrophin binding, the TRK receptor becomes phosphorylated, and the tagged SH2 protein binds.
(§4) This means that the IC50 is a good measure of affinity and should be unaffected by concentration neurotrophin stimulant.
(§5) Cryopreserved PathHunter cells are used from either in-house produced batches or bulk batches bought directly from DiscoveRx. Cryopreserved cells are resuscitated, spun 1000 rpm for 4 min to remove freezing media, and resuspended in MEM+0.5% horse serum (both Invitrogen) to 5e^5 cells/ml. The cells are then plated using a Multidrop into Greiner white tissue culture treated plates at 20 ul/well and incubated for 24 h at 37° C., 5% CO2, high humidity. On the day of the assay, the cell plates are allowed to cool to room temperature for 30 min prior to the assay.
(§6) Plates containing 1 ul of serially diluted compound, standard and HPE/ZPE are diluted 1/66 in assay buffer (PBS minus Ca^2+, minus Mg^2+ with 0.05% pluronic F127) using a Wellmate. […] The plates are left at room temperature for a further 2 hours before addition of 10 ul of the DiscoveRx PathHunter detection reagent (made up by adding 1 part Galacton Star, 5 parts Emerald II and 19 parts Cell Assay Buffer as per the manufacturer's instructions).
(§7) After reagent addition, plates are covered and incubated at room temperature for 60 minutes. Luminescence signal is read using an Envision. Test compound data are expressed as percentage inhibition defined by HPE and ZPE values for each plate. Percentage inhibition in the presence of test compound is plotted against compound concentration on a log scale to determine an […] from the resultant sigmoid curve.
Target sequence in this assay (P04629 33-796): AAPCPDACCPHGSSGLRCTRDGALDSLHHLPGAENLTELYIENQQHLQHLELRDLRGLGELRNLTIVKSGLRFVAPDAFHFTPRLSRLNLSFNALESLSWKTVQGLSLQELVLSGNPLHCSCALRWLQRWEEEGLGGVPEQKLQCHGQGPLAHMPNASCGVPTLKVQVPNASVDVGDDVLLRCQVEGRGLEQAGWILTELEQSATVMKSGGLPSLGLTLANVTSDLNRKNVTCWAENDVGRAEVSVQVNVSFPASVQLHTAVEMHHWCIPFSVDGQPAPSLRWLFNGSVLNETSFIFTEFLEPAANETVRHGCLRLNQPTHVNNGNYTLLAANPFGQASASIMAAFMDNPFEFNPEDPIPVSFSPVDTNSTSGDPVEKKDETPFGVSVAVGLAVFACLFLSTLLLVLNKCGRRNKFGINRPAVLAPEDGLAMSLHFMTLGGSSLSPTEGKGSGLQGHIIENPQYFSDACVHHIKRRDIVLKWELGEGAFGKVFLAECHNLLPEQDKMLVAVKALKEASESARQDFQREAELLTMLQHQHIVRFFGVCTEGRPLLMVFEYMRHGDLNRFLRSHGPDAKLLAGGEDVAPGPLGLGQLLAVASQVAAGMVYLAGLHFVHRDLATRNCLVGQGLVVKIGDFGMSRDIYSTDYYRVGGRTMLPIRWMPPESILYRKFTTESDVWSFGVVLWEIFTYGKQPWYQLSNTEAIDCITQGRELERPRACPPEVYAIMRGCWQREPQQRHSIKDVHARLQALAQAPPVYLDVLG

Series [4] concerns the target T2, TRKB. The experiment in a line: cell-based. As to conditions: TrkB cell potency, TRKB PathHunter cell line. How it is done: as §1, §2, §3, §4, §5, §6, §7
The target of series [5] is MDR1 (Homo sapiens (Human), UniProt P08183). Kind of series: MDCK-MDR1 assay (in vitro brain penetration). The class given is in vitro ADME. As to conditions: human; for Papp B→A: read-out: MDCK MDR1 Papp BA; for Papp A→B: MDCK-MDR1, A to B, read-out: MDCK MDR1 Papp AB. From the text:
MDCK-MDR1: MDCK-MDR1 data were collected according to the method described in “Are MDCK Cells Transfected with the Human MDR1 Gene a Good Model of the Human Intestinal Mucosa?”
http://www.springerlink.com/content/qfhqlqbr4fnp3 khf/fulltext.pdf

Setting [6] is: isolated TRKB enzyme, read-out: TrkB enzyme potency.

T2 sequence (Q16620 32-822 limits assumed): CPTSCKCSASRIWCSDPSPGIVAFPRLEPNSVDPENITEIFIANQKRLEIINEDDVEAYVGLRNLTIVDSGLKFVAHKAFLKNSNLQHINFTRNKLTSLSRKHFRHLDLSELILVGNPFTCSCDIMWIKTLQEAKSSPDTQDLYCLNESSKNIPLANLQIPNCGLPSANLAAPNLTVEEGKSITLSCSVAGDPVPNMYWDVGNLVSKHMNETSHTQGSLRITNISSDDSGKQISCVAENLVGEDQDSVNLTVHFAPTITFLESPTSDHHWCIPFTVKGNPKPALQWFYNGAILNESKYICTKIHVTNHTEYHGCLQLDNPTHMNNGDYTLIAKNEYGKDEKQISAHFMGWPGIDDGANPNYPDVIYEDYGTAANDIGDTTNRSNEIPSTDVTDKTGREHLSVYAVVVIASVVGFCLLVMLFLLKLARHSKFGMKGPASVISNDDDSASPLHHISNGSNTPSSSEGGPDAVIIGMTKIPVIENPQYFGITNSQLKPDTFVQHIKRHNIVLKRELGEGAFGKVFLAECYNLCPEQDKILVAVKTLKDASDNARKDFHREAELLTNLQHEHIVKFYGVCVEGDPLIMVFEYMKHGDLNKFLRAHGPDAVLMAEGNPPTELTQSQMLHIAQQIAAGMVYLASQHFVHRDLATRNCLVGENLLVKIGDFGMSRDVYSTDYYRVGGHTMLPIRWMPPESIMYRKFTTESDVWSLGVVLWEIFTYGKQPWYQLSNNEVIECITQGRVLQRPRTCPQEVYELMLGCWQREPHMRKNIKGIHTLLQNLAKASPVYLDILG
Chain of MDR1 (P08183 whole entry): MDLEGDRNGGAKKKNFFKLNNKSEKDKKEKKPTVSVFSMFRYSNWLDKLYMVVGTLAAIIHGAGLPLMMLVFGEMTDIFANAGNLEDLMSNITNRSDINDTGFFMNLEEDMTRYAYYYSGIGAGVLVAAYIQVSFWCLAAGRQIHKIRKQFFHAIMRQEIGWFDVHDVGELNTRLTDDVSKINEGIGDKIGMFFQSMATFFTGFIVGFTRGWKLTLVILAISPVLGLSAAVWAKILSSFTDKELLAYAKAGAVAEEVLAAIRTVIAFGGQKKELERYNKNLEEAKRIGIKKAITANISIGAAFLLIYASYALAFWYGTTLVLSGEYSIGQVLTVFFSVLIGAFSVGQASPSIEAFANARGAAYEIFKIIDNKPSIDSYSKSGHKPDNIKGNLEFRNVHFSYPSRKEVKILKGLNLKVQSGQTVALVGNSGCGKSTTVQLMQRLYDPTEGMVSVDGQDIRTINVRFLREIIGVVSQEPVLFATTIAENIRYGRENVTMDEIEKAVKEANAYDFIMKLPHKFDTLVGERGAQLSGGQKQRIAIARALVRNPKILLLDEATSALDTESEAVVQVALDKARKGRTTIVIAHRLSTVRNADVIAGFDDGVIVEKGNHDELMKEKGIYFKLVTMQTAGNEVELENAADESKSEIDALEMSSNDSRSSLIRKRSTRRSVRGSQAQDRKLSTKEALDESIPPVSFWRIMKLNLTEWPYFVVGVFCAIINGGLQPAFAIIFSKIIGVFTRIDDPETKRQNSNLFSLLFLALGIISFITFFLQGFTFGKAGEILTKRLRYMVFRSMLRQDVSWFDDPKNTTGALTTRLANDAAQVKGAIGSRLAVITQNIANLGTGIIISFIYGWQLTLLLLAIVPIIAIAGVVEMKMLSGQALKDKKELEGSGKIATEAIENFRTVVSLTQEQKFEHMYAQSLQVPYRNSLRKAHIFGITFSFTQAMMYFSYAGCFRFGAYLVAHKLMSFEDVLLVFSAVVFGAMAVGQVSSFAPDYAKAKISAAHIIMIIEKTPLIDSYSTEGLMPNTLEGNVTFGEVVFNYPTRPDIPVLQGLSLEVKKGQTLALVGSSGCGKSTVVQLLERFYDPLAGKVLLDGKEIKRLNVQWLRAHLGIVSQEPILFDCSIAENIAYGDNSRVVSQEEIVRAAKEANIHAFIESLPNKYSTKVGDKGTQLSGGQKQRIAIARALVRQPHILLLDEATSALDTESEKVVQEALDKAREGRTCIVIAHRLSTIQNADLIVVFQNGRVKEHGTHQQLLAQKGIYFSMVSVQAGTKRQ

Regarding `CC(CO)n1cc(C(=O)c2cncc(NC(=O)Cc3ccc(Cl)cn3)c2)c2cnc(N)nc21` (single isomer, unassigned) [Example 35, N-(5-{[2-amino-7-(2-hydroxy-1-methylethyl)-7H-pyrrolo[2,3-d]pyrimidin-5-yl]carbonyl}pyridin-3-yl)-2-(5-chloropyridin-2-yl)acetamide], the IC50 in series [1] stood at 8.9 nM; in series [2] (setting [6]), 223 nM; in series [3], 103 nM; in series [4] it was 37 nM. Besides, the Papp B→A in series [5] (MDCK-MDR1, MDCK-MDR1, B to A) is 5.3 ×10⁻⁶ cm/s. Further, the Papp A→B in series [5] was below 1 ×10⁻⁶ cm/s.
With `CC(C)(C)n1cc(C(=O)c2cncc(NC(=O)Cn3cc(C4CC4)cn3)c2)c2cncnc21` [Example 7, N-{5-[(7-tert-butyl-7H-pyrrolo[2,3-d]pyrimidin-5-yl)carbonyl]pyridin-3-yl}-2-(4-cyclopropyl-1H-pyrazol-1-yl)acetamide], the IC50 in series [1] turned out to be 11 nM; in series [2] (setting [6]), 41 nM; in series [3], 2.1 nM; in series [4], 0.8 nM. Also, the Papp B→A in series [5] (MDCK-MDR1, MDCK-MDR1, B to A) was found to be 20 ×10⁻⁶ cm/s. In addition, the Papp A→B in series [5] was determined as 5.6 ×10⁻⁶ cm/s.
Turning to `C[C@@H](CO)n1cc(C(=O)c2cncc(NC(=O)Cn3ccc(C(F)(F)F)n3)c2)c2cncnc21` [Example 12, N-[5-({7-[(1S)-2-hydroxy-1-methylethyl]-7H-pyrrolo[2,3-d]pyrimidin-5-yl}carbonyl)pyridin-3-yl]-2-[3-(trifluoromethyl)-1H-pyrazol-1-yl]acetamide], the IC50 worked out at 9.2 nM in series [1], 547 nM in series [2] (setting [6]), 68 nM in series [3] and 22 nM in series [4]. The Papp B→A in series [5] (MDCK-MDR1, MDCK-MDR1, B to A) stood at 3.1 ×10⁻⁶ cm/s. Further, the Papp A→B in series [5] was below 1 ×10⁻⁶ cm/s.
On to `C[C@@H](CO)n1cc(C(=O)c2cncc(NC(=O)Cn3cc(C(F)(F)F)nn3)c2)c2cncnc21` [Example 13, N-[5-({7-[(1S)-2-hydroxy-1-methylethyl]-7H-pyrrolo[2,3-d]pyrimidin-5-yl}carbonyl)pyridin-3-yl]-2-[4-(trifluoromethyl)-1H-1,2,3-triazol-1-yl]acetamide], for which the IC50 in series [1] was 20 nM; in series [2] (setting [6]) it was 449 nM; in series [3] it was 1130 nM; in series [4], 184 nM. Also, the Papp B→A in series [5] (MDCK-MDR1, MDCK-MDR1, B to A) was 1 ×10⁻⁶ cm/s. In series [5], the Papp A→B is below 1 ×10⁻⁶ cm/s.
As to `C[C@@H](CO)n1cc(C(=O)c2cncc(NC(=O)Cn3nc4ccccc4n3)c2)c2cncnc21` [Example 15, 2-(2H-benzotriazol-2-yl)-N-[5-({7-[(1S)-2-hydroxy-1-methylethyl]-7H-pyrrolo[2,3-d]pyrimidin-5-yl}carbonyl)pyridin-3-yl]acetamide], the IC50 in series [1] worked out at 17 nM; in series [2] (TrkB enzyme potency), 514 nM; in series [3], 143 nM; in series [4], 40 nM. For the same compound, in series [5], the Papp A→B is below 1 ×10⁻⁶ cm/s. In addition, the Papp B→A in series [5] (MDCK-MDR1, B to A) is 15 ×10⁻⁶ cm/s.
Regarding `C[C@H](CO)n1cc(C(=O)c2cncc(NC(=O)Cc3ccc(F)cn3)c2)c2cncnc21` [Example 19, 2-(5-fluoropyridin-2-yl)-N-[5-({7-[(1R)-2-hydroxy-1-methylethyl]-7H-pyrrolo[2,3-d]pyrimidin-5-yl}carbonyl)pyridin-3-yl]acetamide], the IC50 stood at 249 nM in series [1], 5480 nM in series [2] (TrkB enzyme potency), 1840 nM in series [3] and 206 nM in series [4]. Besides, in series [5], the Papp A→B is below 1 ×10⁻⁶ cm/s. Besides, in series [5] (MDCK-MDR1, B to A), the Papp B→A turned out to be 8.5 ×10⁻⁶ cm/s.
`C[C@H](CO)n1cc(C(=O)c2cncc(NC(=O)Cc3ccc(C(F)(F)F)cc3)c2)c2cncnc21` [Example 20, N-[5-({7-[(1R)-2-hydroxy-1-methylethyl]-7H-pyrrolo[2,3-d]pyrimidin-5-yl}carbonyl)pyridin-3-yl]-2-[4-(trifluoromethyl)phenyl]acetamide]: the IC50 worked out at 14 nM in series [1], 635 nM in series [2] (setting [6]), 22 nM in series [3] and 19 nM in series [4]. Further, the Papp B→A in series [5] (MDCK-MDR1, MDCK-MDR1, B to A) came out at 17 ×10⁻⁶ cm/s. The Papp A→B in series [5] is below 1 ×10⁻⁶ cm/s.
Turning to `CC(CO)n1cc(C(=O)c2cncc(NC(=O)Cn3cc(C4CC4)cn3)c2)c2cncnc21` (centres unmarked) [Example 25, 2-(4-Cyclopropyl-1H-pyrazol-1-yl)-N-(5-{[7-(2-hydroxy-1-methylethyl)-7H-pyrrolo[2,3-d]pyrimidin-5-yl]carbonyl}pyridin-3-yl)acetamide], the IC50 was determined as 24 nM in series [1], 433 nM in series [2] (setting [6]), 65 nM in series [3] and 19 nM in series [4]. Further, the Papp B→A in series [5] (MDCK-MDR1, MDCK-MDR1, B to A) was determined as 13 ×10⁻⁶ cm/s. Also, in series [5], the Papp A→B is below 1 ×10⁻⁶ cm/s.
With `CC(C)(CO)n1cc(C(=O)c2cncc(NC(=O)Cc3ccc(Cl)cc3)c2)c2cncnc21` [Example 28, 2-(4-chlorophenyl)-N-(5-{[7-(2-hydroxy-1,1-dimethylethyl)-7H-pyrrolo[2,3-d]pyrimidin-5-yl]carbonyl}pyridin-3-yl)acetamide], the IC50 came to 4.9 nM in series [1], 75 nM in series [2] (TrkB enzyme potency), 2.7 nM in series [3] and 1.9 nM in series [4]. In addition, the Papp A→B in series [5] was below 1 ×10⁻⁶ cm/s. In addition, in series [5] (MDCK-MDR1, B to A), the Papp B→A came to 20 ×10⁻⁶ cm/s.
For `CC(C)(CO)n1cc(C(=O)c2cncc(NC(=O)Cc3ccc(Cl)cn3)c2)c2cncnc21` [Example 29, 2-(5-chloropyridin-2-yl)-N-(5-{[7-(2-hydroxy-1,1-dimethylethyl)-7H-pyrrolo[2,3-d]pyrimidin-5-yl]carbonyl}pyridin-3-yl)acetamide], the IC50 in series [1] worked out at 2.8 nM; in series [2] (TrkB enzyme potency), 68 nM; in series [3], 5.8 nM; in series [4], 4 nM. Also, in series [5], the Papp A→B came to 1.3 ×10⁻⁶ cm/s. For the same compound, in series [5] (MDCK-MDR1, B to A), the Papp B→A was 23 ×10⁻⁶ cm/s.
In the case of `CC(C)(CO)n1cc(C(=O)c2cncc(NC(=O)Cn3ccc(C(F)(F)F)n3)c2)c2cncnc21` [Example 30, N-(5-{[7-(2-hydroxy-1,1-dimethylethyl)-7H-pyrrolo[2,3-d]pyrimidin-5-yl]carbonyl}pyridin-3-yl)-2-[3-(trifluoromethyl)-1H-pyrazol-1-yl]acetamide], the IC50 in series [1] is 4 nM; in series [2] (TrkB enzyme potency), 98 nM; in series [3] it was 11 nM; in series [4], 7.5 nM. The Papp A→B in series [5] was below 1 ×10⁻⁶ cm/s. In addition, the Papp B→A in series [5] (MDCK-MDR1, B to A) was found to be 15 ×10⁻⁶ cm/s.
Consider `CC(C)(CO)n1cc(C(=O)c2cncc(NC(=O)Cn3cc(C4CC4)cn3)c2)c2cncnc21` [Example 33, 2-(4-cyclopropyl-1H-pyrazol-1-yl)-N-(5-{[7-(2-hydroxy-1,1-dimethylethyl)-7H-pyrrolo[2,3-d]pyrimidin-5-yl]carbonyl}pyridin-3-yl)acetamide], for which the IC50 in series [1] stood at 5.7 nM; in series [2] (setting [6]) it was 96 nM; in series [3] it was 2 nM; in series [4], 1.6 nM. The Papp B→A in series [5] (MDCK-MDR1, MDCK-MDR1, B to A) stood at 24 ×10⁻⁶ cm/s. Also, in series [5], the Papp A→B came out at 1 ×10⁻⁶ cm/s.
As for `Cc1cc(C(F)(F)F)nn1CC(=O)Nc1cncc(C(=O)c2cn(C(C)(C)CO)c3nc(N)ncc23)c1` [Example 47, N-(5-{[2-Amino-7-(2-hydroxy-1,1-dimethylethyl)-7H-pyrrolo[2,3-d]pyrimidin-5-yl]carbonyl}pyridin-3-yl)-2-[5-methyl-3-(trifluoromethyl)-1H-pyrazol-1-yl]acetamide], the IC50 in series [1] came out at 25 nM; in series [2] (setting [6]) it was 27 nM; in series [3] it was 35 nM; in series [4], 13 nM. Also, the Papp B→A in series [5] (MDCK-MDR1, MDCK-MDR1, B to A) is 21 ×10⁻⁶ cm/s. Moreover, in series [5], the Papp A→B was below 1 ×10⁻⁶ cm/s.
As for `CC(C)(CO)n1cc(C(=O)c2cncc(NC(=O)Cn3cc(C(F)(F)F)nn3)c2)c2cnc(N)nc21` [Example 54, N-(5-{[2-Amino-7-(2-hydroxy-1,1-dimethylethyl)-7H-pyrrolo[2,3-d]pyrimidin-5-yl]carbonyl}pyridin-3-yl)-2-[4-(trifluoromethyl)-1H-1,2,3-triazol-1-yl]acetamide], the IC50 in series [1] was determined as 6.7 nM; in series [3], 368 nM; in series [4], 174 nM. The Papp B→A in series [5] (MDCK-MDR1, MDCK-MDR1, B to A) was 1.3 ×10⁻⁶ cm/s. For the same compound, the Papp A→B in series [5] was below 1 ×10⁻⁶ cm/s.
